Test results as given in US20010000177A1, “Novel class of thiomorpholino substituted thiazoles” (priority 1999, published 2001).
In brackets after ≈: the same amount, converted by molar mass.

Key:
[1] = tested on: Candida albican; conditions: Antimicrob. Agents Chemother., (1980), 18(2), 231-9; cited from earlier work
[2] = tested on: Candida and Cryptococcus strains (organism not given); experiment: Broth microdilution antifungal activity, Table II first MIC/MCC column pair; format: cell-based; conditions: for MIC = Minimum inhibitory concentration (50% Inhibition) / MCC = Minimum cytolytic concentration: first column pair of Table II; for MIC = Minimum inhibitory concentration (50% Inhibition): YNB broth pH 7.0; for MCC = Minimum cytolytic concentration: subculture on SDA plate
Procedure: (§1) Organisms: Three strains of Candida (Candida parpsilosis, Candida tropicalis, Candida albicans-ATCC 36082) as well as Cryptococcus neoformans were used for the initial testing. […] All clinical strains used in this study were blood culture isolates from the Clinical Microbiology Laboratory of Harbor-UCLA Medical Center, Torrance, Calif. The organisms were maintained on Sabourahd Dextrose Agar slants at 4° C. For experimentation, singlet suspensions of each organism were prepared by growing the yeast overnight at 27° C. on a rotating drum in yeast-nitrogen base broth (YNB) with amino acids (Difco, Detroit, Mich.), pH 7.0 with 0.05M morpholinepropanesulfonic acid (MOPS). The suspension was then centrifuged and washed twice with 0.85% NaCl. This was followed by sonication of the washed cell suspension for 4s (Branson Sonifier, model 350, Danbury, Conn.). The singlet blastospores were counted in a hemocytometer and adjusted to the desired concentration in 0.85% NaCl.
(§2) Antifungal Activity: The antifungal activity of the compounds and Fluconazole against the Candida and Cryptococcus strains were determined using a modification of a broth microdilution technique. Test compounds were diluted in DMSO to a 1.0 mg/ml ratio then diluted to 64 μg/ml in YNB broth, pH 7.0 with MOPS (Fluconazole was used as the control). This was to provide a working solution of each compound. Using a 96-well plate, wells 1 and 3 through 12 were prepared with YNB broth, […] dilutions of the compound solution were made in wells 2 through 11 (concentration ranges were 64 to 0.125 μg/ml). Well one served as a sterility control and blank for the spectrophotometric assays. Well twelve served as a growth control. The microtiter plates were inoculated with 10 ul in each of well 2 through 11 (final inoculum size was 10^4 organisms/ml). Inoculated plates were incubated for 48 hrs., at 35° C. The MIC values were determined spectrophotometrically by measuring the absorbance at 420 nm (Automatic Microplate Reader, DuPont Instruments, Wilmington, Del.) after agitation of the plates for 2 min with a vortex-mixer (Vorte-Genie 2 Mixer, Scientific Industries, Inc., Bolemia, N.Y.). […] With the turbidity assay this was defined as the lowest drug concentration at which turbidity in the well was <50% of the control (IC50) Minimal Cytolytic Concentrations (MCC) were determined by subculturing all wells from the 96-well plate onto a Sabourahd Dextrose Agar (SDA) plate and incubated for 1 to 2 days at 35° C. and the viability was checked.

[3] = tested on: Candida and Cryptococcus strains (organism not given); experiment: Broth microdilution antifungal activity, Table II second MIC/MCC column pair; format: cell-based; conditions: for MIC = Minimum inhibitory concentration (50% Inhibition) / MCC = Minimum cytolytic concentration: second column pair of Table II; for MIC = Minimum inhibitory concentration (50% Inhibition): YNB broth pH 7.0; for MCC = Minimum cytolytic concentration: subculture on SDA plate
Procedure: (§3) Organisms: Three strains of Candida (Candida parpsilosis, Candida tropicalis, Candida albicans-ATCC 36082) as well as Cryptococcus neoformans were used for the initial testing. Active compounds were then tested against fluconazole resistant Candida albicans, Candida krusei, Torulopsis glabrata, and Cryptococcus neoformans along with Sporothrix shenkii and Aspergillus flavus in the secondary round of testing. All clinical strains used in this study were blood culture isolates from the Clinical Microbiology Laboratory of Harbor-UCLA Medical Center, Torrance, Calif. The organisms were maintained on Sabourahd Dextrose Agar slants at 4° C. For experimentation, singlet suspensions of each organism were prepared by growing the yeast overnight at 27° C. on a rotating drum in yeast-nitrogen base broth (YNB) with amino acids (Difco, Detroit, Mich.), pH 7.0 with 0.05M morpholinepropanesulfonic acid (MOPS). The suspension was then centrifuged and washed twice with 0.85% NaCl. This was followed by sonication of the washed cell suspension for 4s (Branson Sonifier, model 350, Danbury, Conn.). The singlet blastospores were counted in a hemocytometer and adjusted to the desired concentration in 0.85% NaCl.
as §2

[4] = tested on: Candida and Cryptococcus strains (organism not given); experiment: Broth microdilution antifungal activity, Table II third MIC/MCC column pair; format: cell-based; conditions: for MIC = Minimum inhibitory concentration (50% Inhibition): 48 hrs, 35° C., YNB broth pH 7.0; for MCC = Minimum cytolytic concentration: subculture on SDA plate
Procedure: as §3, §2

[5] = tested on: Candida and Cryptococcus strains (organism not given); experiment: Broth microdilution antifungal activity, Table II fourth MIC/MCC column pair; format: cell-based; conditions: for MIC = Minimum inhibitory concentration (50% Inhibition) / MCC = Minimum cytolytic concentration: fourth column pair of Table II; for MIC = Minimum inhibitory concentration (50% Inhibition): YNB broth pH 7.0; for MCC = Minimum cytolytic concentration: subculture on SDA plate
Procedure: as §1, §2

Row | Structure (SMILES) | MIC50 [1] | MIC = Minimum inhibitory concentration (50% Inhibition) ([2]; 48 hrs, 35° C.) | MCC = Minimum cytolytic concentration [2] | MIC = Minimum inhibitory concentration (50% Inhibition) ([3]; 48 hrs, 35° C.) | MCC = Minimum cytolytic concentration [3] | MIC = Minimum inhibitory concentration (50% Inhibition) [4] | MCC = Minimum cytolytic concentration [4] | MIC = Minimum inhibitory concentration (50% Inhibition) ([5]; 48 hrs, 35° C.) | MCC = Minimum cytolytic concentration [5] | MIC ([2]; Candida, 48 h, pH 7, first column pair of Table II, 48 hrs, 35° C., YNB broth pH 7.0, read-out: MIC = Minimum inhibitory concentration (50% Inhibition)) | MIC ([3]; Candida, 48 h, pH 7, second column pair of Table II, 48 hrs, 35° C., YNB broth pH 7.0, read-out: MIC = Minimum inhibitory concentration (50% Inhibition)) | MIC ([5]; Candida, 48 h, pH 7, fourth column pair of Table II, 48 hrs, 35° C., YNB broth pH 7.0, read-out: MIC = Minimum inhibitory concentration (50% Inhibition))
1 | N=C(N)c1ccc(-c2nnc(-c3ccc(C(=N)N)cc3)o2)cc1 | > 60 µg/mL |  |  |  |  |  |  |  |  |  |  | 
2 | COc1ccc(-c2nc(-c3ccc(CN(C)C)cc3)cs2)cc1[N+](=O)[O-] [Example 6l, 2-(4′-methoxy-3′-nitrophenyl)-4-[4″-(dimethylaminomethyl)phenyl]thiazole] |  | 0.5 µg/mL (≈ 1.35 µM) | 1 µg/mL | 0.25 µg/mL (≈ 0.677 µM) | 0.5 µg/mL | 0.25 µg/mL (≈ 0.677 µM) | 1 µg/mL | 0.25 µg/mL (≈ 0.677 µM) | 0.5 µg/mL |  |  | 
3 | CN(C)Cc1ccc(-c2csc(-c3cccc(C#N)c3)n2)cc1 [Example 6o, 2-(3′-cyanophenyl)-4-[4″-(dimethylaminomethyl)phenyl]thiazole] |  | 2 µg/mL (≈ 6.26 µM) | 4 µg/mL | 2 µg/mL (≈ 6.26 µM) | 8 µg/mL | 2 µg/mL (≈ 6.26 µM) | >64 µg/mL | 8 µg/mL (≈ 25 µM) | 16 µg/mL |  |  | 
4 | CCCN(C)Cc1ccc(-c2csc(-c3ccc(C)c([N+](=O)[O-])c3)n2)cc1 [Example 6p, 2-(4′-methyl-3′-nitrophenyl)-4-[4″-(N-methyl-N-propylaminomethyl)-phenyl]thiazole] |  | 1 µg/mL (≈ 2.62 µM) | 8 µg/mL | 1 µg/mL (≈ 2.62 µM) | 4 µg/mL | 2 µg/mL (≈ 5.24 µM) | 16 µg/mL | 1 µg/mL (≈ 2.62 µM) | 4 µg/mL |  |  | 
5 | COc1ccc(-c2nnc(-c3ccc(CN(C)C)cc3)o2)cc1 [Example 9j, 2-(4′-methoxyphenyl)-5-[4″-(dimethylaminomethyl)phenyl]-1,3,4-oxadiazole] |  | 4 µg/mL (≈ 12.9 µM) | 32 µg/mL | 8 µg/mL (≈ 25.9 µM) | 8 µg/mL | 0.5 µg/mL (≈ 1.62 µM) | 0.5 µg/mL | 0.25 µg/mL (≈ 0.808 µM) | 8 µg/mL |  |  | 
6 | OC(Cn1cncn1)(Cn1cncn1)c1ccc(F)cc1F [Fluconazole, reference compound] |  | 0.5 µg/mL (≈ 1.63 µM) | >64 µg/mL | 1.0 µg/mL (≈ 3.27 µM) | >64 µg/mL |  | >64 µg/mL | 0.5 µg/mL (≈ 1.63 µM) | >64 µg/mL | 0.25 µg/mL (≈ 0.816 µM) | 0.5 µg/mL (≈ 1.63 µM) | 1 µg/mL (≈ 3.27 µM)
